Experimental data as given in patent US4327210A, “Thiazolylacelamide cephalosporins” (Hoffmann-La Roche Inc., priority 1978, dated 1982).
In brackets after ≈: the same amount, converted by molar mass.

How the values were obtained:
[1] = test system: Escherichia coli; experiment: In vivo activity in mice infected intraperitoneally with Escherichia coli; conditions: sc, 96 h, read-out: CD50 (dose with which 50% of the test animals survive); mice infected i.p. with Escherichia coli; s.c. 1, 2 1/2 and 4 hours after infection; survival on fourth day; by interpolation
Protocol: Groups of 5 mice are infected intraperitoneally with an aqueous suspension of Escherichia coli. The test substance is administered subcutaneously in physiological common salt solution three times, i.e. 1 hour, 21/2 hours and 4 hours, after the infection. The number of surviving animals is determined on the fourth day.

[2] = test system: Proteus vulgaris; experiment: In vitro antimicrobial activity (minimum inhibitory concentration); type: cell-based
Description: (§1) In vitro activity: minimum inhibitory concentration (μg/ml)

[3] = test system: Staphylococcus aureus; experiment: as above; type: cell-based
Description: as §1

[4] = test system: Escherichia coli; experiment: as above; type: cell-based
Description: as §1

[5] = test system: Proteus mirabilis; experiment: as above; type: cell-based
Description: as §1

[6] = test system: Proteus rettgeri; experiment: as above; type: cell-based; conditions: Providencia rettgeri
Description: as §1

[7] = test system: Haemophilus influenzae; experiment: as above; type: cell-based
Description: as §1

[8] = test system: Serratia marcescens; experiment: as above; type: cell-based
Description: as §1

[9] = test system: Klebsiella pneumoniae; experiment: as above; type: cell-based
Description: as §1

[10] = test system: Pseudomonas aeruginosa; experiment: as above; type: cell-based
Description: as §1

[11] = in vivo
[12] = ATCC6538, Staphylococcus aureus strain ATCC 6538
[13] = Staphylococcus aureus pencillin-resistant strain
[14] = Haemophilus influenzae strain 1
[15] = Haemophilus influenzae strain 2
[16] = Haemophilus influenzae strain 3
[17] = Haemophilus influenzae strain 4
[18] = Haemophilus influenzae strain 5
[19] = Haemophilus influenzae strain 6
[20] = Haemophilus influenzae strain 7
[21] = Pseudomonas aeruginosa strain 1
[22] = Pseudomonas aeruginosa strain 2
[23] = Pseudomonas aeruginosa strain 3
[24] = Pseudomonas aeruginosa strain 4
[25] = Pseudomonas aeruginosa strain 5
[26] = Pseudomonas aeruginosa strain 6
[27] = Pseudomonas aeruginosa strain 7

| SMILES | ED50 [1] [mg/kg] | MIC [2] [µg/mL] | MIC [3, 12] [µg/mL] | MIC [3, 13] [µg/mL] | MIC ([4]; Escherichia coli strain 1) [µg/mL] | MIC ([4]; Escherichia coli strain 2) [µg/mL] | MIC ([5]; Proteus mirabilis strain 1) [µg/mL] | MIC ([5]; Proteus mirabilis strain 2) [µg/mL] | MIC [6] [µg/mL] | MIC [7, 14] [µg/mL] | MIC [7, 15] [µg/mL] | MIC [7, 16] [µg/mL] | MIC [7, 17] [µg/mL] | MIC [7, 18] [µg/mL] | MIC [7, 19] [µg/mL] | MIC [7, 20] [µg/mL] | MIC [8] [µg/mL] | MIC [9] [µg/mL] | MIC [10, 21] [µg/mL] | MIC [10, 22] [µg/mL] | other results |
| --- | --- | --- | --- | --- | --- | --- | --- | --- | --- | --- | --- | --- | --- | --- | --- | --- | --- | --- | --- | --- | --- |
| CO/N=C(\C(=O)N[C@@H]1C(=O)N2C(C(=O)O)=C(CSc3nc(=O)c(O)nn3C)CS[C@H]12)c1csc(N)n1 [Product A] | ≤ 0.005 | ≤ 0.01 | 2.5 (≈ 4.51 µM) | 2.5 (≈ 4.51 µM) | 0.02 (≈ 0.0361 µM) | 0.6 (≈ 1.08 µM) | ≤ 0.01 | ≤ 0.01 | ≤ 0.01 | 0.08 (≈ 0.144 µM) | 0.005 (≈ 0.00902 µM) | 0.005 (≈ 0.00902 µM) | 0.005 (≈ 0.00902 µM) | 0.0025 (≈ 0.00451 µM) | 0.0025 (≈ 0.00451 µM) | 0.0025 (≈ 0.00451 µM) | 0.08 (≈ 0.144 µM) | 1.2 (≈ 2.16 µM) | 0.3 (≈ 0.541 µM) | 10 (≈ 18 µM) | MIC [10, 23]: 2.5 µg/mL (≈ 4.51 µM); MIC [10, 24]: 5 µg/mL (≈ 9.02 µM); MIC [10, 25]: 5 µg/mL (≈ 9.02 µM); MIC [10, 26]: 10 µg/mL (≈ 18 µM); MIC [10, 27]: 5 µg/mL (≈ 9.02 µM) |
| CO/N=C(\C(=O)N[C@@H]1C(=O)N2C(C(=O)O)=C(CSc3nc(=O)c(O)nn3C)CS[C@H]12)c1csc(NC(=O)CCl)n1 [Product B, (6R,7R)-7-[2-[2-(2-Chloroacetamido)-4-thiazolyl]-2-(Z-methoxyimino)acetamido]-3-[[(2,5-dihydro-6-hydroxy-2-methyl-5-oxo-as-triazin-3-yl)thiol]methyl]-8-oxo-5-thia-1-azabicyclo[4.2.0]oct-2-ene-2-carboxylic acid] | 0.16 | 0.16 (≈ 0.254 µM) | 2.5 (≈ 3.96 µM) | 5 (≈ 7.92 µM) | 0.16 (≈ 0.254 µM) | 5 (≈ 7.92 µM) | 0.08 (≈ 0.127 µM) | 0.16 (≈ 0.254 µM) | 0.16 (≈ 0.254 µM) | 1.2 (≈ 1.9 µM) | 0.3 (≈ 0.475 µM) | 0.16 (≈ 0.254 µM) | 0.16 (≈ 0.254 µM) | 0.08 (≈ 0.127 µM) | 0.16 (≈ 0.254 µM) | 0.16 (≈ 0.254 µM) | 2.5 (≈ 3.96 µM) | 10 (≈ 15.8 µM) | 1.2 (≈ 1.9 µM) | > 80 | MIC [10, 23]: 40 µg/mL (≈ 63.4 µM); MIC [10, 24]: 80 µg/mL (≈ 127 µM); MIC [10, 25]: 80 µg/mL (≈ 127 µM); MIC [10, 26]: 80 µg/mL (≈ 127 µM); MIC [10, 27]: 80 µg/mL (≈ 127 µM); LD50 ([11]; iv): 250 to 500 mg/kg; LD50 ([11]; po): > 5000 mg/kg; LD50 ([11]; sc): 2000 to 4000 mg/kg |
